According to patent publication US6875762B2, “Tetracyclic azepinoindole compounds” (Pfizer, priority 1999, dated 2005):
Structures can show the parent of a compound that is named as a salt.

These compounds were tested against T1, Human 5-HT2C receptor (Homo sapiens, UniProt P28335) (assay: Test A: scintillation proximity radioligand binding assay with [3H]serotonin). Details: Receptor binding 5HT2c Ki (nM), membranes of HEK293-h5-HT2C-5 cells; [3H]serotonin final 4 nM; IC50 converted by Cheng-Prusoff, Kd 7 nM.
T1 construct: expressed in transfected cells; host or cells: HEK293 (HEK293-h5-HT2C-5 cell line), membranes
T1 sequence (P28335 33-458): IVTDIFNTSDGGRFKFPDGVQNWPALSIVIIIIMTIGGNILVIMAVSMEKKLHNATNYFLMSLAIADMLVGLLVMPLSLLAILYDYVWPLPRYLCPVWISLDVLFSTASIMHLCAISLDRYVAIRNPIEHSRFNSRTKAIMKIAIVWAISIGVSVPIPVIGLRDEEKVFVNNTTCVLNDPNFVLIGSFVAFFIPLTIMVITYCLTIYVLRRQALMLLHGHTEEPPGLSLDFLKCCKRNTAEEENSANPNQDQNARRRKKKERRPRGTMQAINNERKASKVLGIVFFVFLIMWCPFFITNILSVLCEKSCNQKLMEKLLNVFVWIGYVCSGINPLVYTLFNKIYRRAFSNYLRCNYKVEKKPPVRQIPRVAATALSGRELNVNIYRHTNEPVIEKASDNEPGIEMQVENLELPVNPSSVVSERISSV
Protocol: The gene was inserted into expression vectors containing resistance genes as selectable markers. […] The receptor was used under license from D. J. Julius at Columbia University.
The HEK293-h5-HT2C-5 cell line was seeded from frozen stocks into DMEM high glucose salts medium supplemented with sodium pyruvate, Penicillin/Streptomycin solution, G418 (0.25 g/L), hygromycin B ([…]), and Fetal Bovine Serum (3%). […] At approximately 90% confluency, the cells were rinsed with ice-cold PBS and scraped from the NUNC plates using 3M squeegees. The cells were broken with a VirTishear homogenizer. The remaining particulate matter was removed by low-speed centrifugation. Finally, the membranes were concentrated by high-speed centrifugation and resuspended in binding buffer, 50 mM TRIS, 5 mM MgCl2, pH 7.4. The preparation was held in a water-ice slurry while a pilot binding assay was performed (1.5 hours), and then quick-frozen in aliquots appropriate for 1 tube for each 96-well assay plate.
Assays were performed in Wallac microtitre PET plates designed for the Wallac microBeta LSC. Binding reactions contained test compound (11 μl), [^3H]serotonin (124 Ci/mmol, 11 μl for final 4 nM) and bead-membrane mixture (178 μl). The test compound was replaced by water to determine total binding, or by mianserin (5 μM) to define non-specific binding.
The bead-membrane mixture was made by adding 100 mg Wheatgerm Agglutinin SPA beads (Amersham) and membrane preparation (2-5 mg protein) in a total of 8 ml binding buffer for each 96-well assay plate. The mixture was stirred gently for 30 minutes at room temperature, followed by centrifugation (1000 RPM, Beckman Accuspin FR) for 10 minutes. The supernatant, containing excess membrane, was aspirated, and the beads resuspended in 18.5 ml binding buffer for each assay plate. The washed bead-membrane mix was then poured into a reagent reservoir. The mixture was pipetted into the assay plate with a multi-channel pipetter, maintaining constant stirring during pipetting.
After the reactions were complete, the plates were sealed with plastic tape and placed on a gyrotory shaker (150 rpm) for 5 minutes. After shaking, room temperature incubation continued for 2 hours. Finally, the plates were loaded into counting cassettes and counted with the Wallac microBeta LSC.
Eleven half-log serial dilutions of test compounds were made in water using the PE/Cetus Pro/Pette pipetter. These dilutions were distributed to assay plates using the same instrument, followed by radioligand and the bead-membrane mixture prepared as described above. The specifically bound cpm obtained were fit to a one-site binding model using GraphPad Prism ver. 2.0.
Work on `Cc1cc2c3c(c1)c1c(n3CCO2)CCNCC1` [Example 24, 5-methyl-1,2,8,9,10,11-hexahydro-7H-azepino[4,5-b][1,4]oxazino[2,3,4-hi]indole hydrochloride] yielded a Ki of 29 nM. Work on `COc1ccc2c3c1c1c(n3CCC2)CCNCC1` [Example 3, 1-methoxy-5,6,9,10,11,12-hexahydro-4H,8H-azepino[4′,5′:4,5]pyrrolo[3,2,1-ij]quinoline hydrochloride] yielded a Ki of 27 nM. Compound `CC1CCn2c3c(c4cccc1c42)CCNCC3` (stereo not drawn) [Example 7, 4-methyl-5,6,9,10,11,12-hexahydro-4H,8H-azepino[4′,5′:4,5]pyrrolo[3,2,1-ij]quinoline hydrochloride] has a Ki of 77 nM. `CC1CCn2c3c(c4cccc1c42)CCNCC3` (single isomer, unassigned; (-)) [Example 13, (−)-4-methyl-5,6,9,10,11,12-hexahydro-4H,8H-azepino[4′,5′:4,5]pyrrolo[3,2,1-ij]quinoline hydrochloride] showed a Ki of 45 nM. `COc1cc2c3c(c1)c1c(n3CC2)CCNCC1` [Example 16, 2-methoxy-4,5,8,9,10,11-hexahydro-7H-azepino[4,5-b]pyrrolo[3,2,1-hi]indole hydrochloride] was tested, and the Ki was 361 nM. `Fc1cc2c3c(c1)c1c(n3CC2)CCNCC1` [Example 15, 2-fluoro-4,5,8,9,10,11-hexahydro-7H-azepino[4,5-b]pyrrolo[3,2,1-hi]indole hydrochloride] gave a Ki of 24 nM. `c1cc2c3c(c1)c1c(n3CC2)CCNCC1` [Example 14, 4,5,8,9,10,11-hexahydro-7H-azepino[4,5-b]pyrrolo[3,2,1-hi]indole hydrochloride] gave a Ki of 28 nM. Compound `CC1Cc2cccc3c4c(n1c23)CCNCC4` (stereo not drawn) [Example 17, 5-methyl-4,5,8,9,10,11-hexahydro-7H-azepino[4,5-b]pyrrolo[3,2,1-hi]indole hydrochloride] has a Ki of 65 nM. In the case of `CC1CCn2c3c(c4cccc1c42)CCNCC3` (single isomer, unassigned; (+)) [Example 12, (+)-4-methyl-5,6,9,10,11,12-hexahydro-4H,8H-azepino[4′,5′:4,5]pyrrolo[3,2,1-ij]quinoline hydrochloride], the Ki is reported as 41 nM.

Same assay, conditions: membranes of HEK293-h5-HT2C-5 cells; [3H]serotonin final 4 nM; IC50 converted by Cheng-Prusoff, Kd 7 nM; read-out: Receptor binding 5HT2c Ki
With `CC1CCc2cccc3c4c(n1c23)CCNCC4` (single isomer, unassigned; (+)) [Example 8, (+)-6-methyl-5,6,9,10,11,12-hexahydro-4H,8H-azepino[4′,5′:4,5]pyrrolo[3,2,1-ij]quinoline hydrochloride] the Ki was 51 nM. With `Fc1cc2c3c(c1)c1c(n3CCO2)CCNCC1` [Example 23, 5-fluoro-1,2,8,9,10,11-hexahydro-7H-azepino[4,5-b][1,4]oxazino[2,3,4-hi]indole hydrochloride] the Ki was 13 nM. `CC1Cc2cccc3c4c(n(c23)C1)CCNCC4` (stereo not drawn) [Example 6, 5-methyl-5,6,9,10,11,12-hexahydro-4H,8H-azepino[4′,5′:4,5]pyrrolo[3,2,1-ij]quinoline hydrochloride] showed a Ki of 44 nM. `Fc1cc2c3c(c1)c1c(n3CCC2)CCNCC1` [Example 4, 2-fluoro-5,6,9,10,11,12-hexahydro-4H,8H-azepino[4′,5′:4,5]pyrrolo[3,2,1-ij]quinoline hydrochloride] was tested, and the Ki was 83 nM. Work on `CC1Cn2c3c(c4cccc(c42)O1)CCNCC3` (stereo not drawn) [Example 26, 2-methyl-1,2,8,9,10,11-hexahydro-7H-azepino[4,5-b][1,4]oxazino[2,3,4-hi]indole hydrochloride] yielded a Ki of 29 nM. `Cc1ccc2c3c1c1c(n3CCO2)CCNCC1` [Example 20, 6-methyl-1,2,8,9,10,11-hexahydro-7H-azepino[4,5-b][1,4]oxazino[2,3,4-hi]indole hydrochloride] gave a Ki of 3.8 nM. For `CC1Cc2cccc3c4c(n(c23)C1)CCNCC4` (single isomer, unassigned; (-)) [Example 11, (−)-5-methyl-5,6,9,10,11,12-hexahydro-4H,8H-azepino[4′,5′:4,5]pyrrolo[3,2,1-ij]quinoline hydrochloride], the Ki was 96 nM. Compound `c1cc2c3c(c1)c1c(n3CCC2)CCNCC1` [Example 1, 5,6,9,10,11,12-hexahydro-4H,8H-azepino[4′,5′:4,5]pyrrolo[3,2,1-ij]quinoline hydrochloride] has a Ki of 13 nM. Compound `c1cc2c3c(c1)c1c(n3CCS2)CCNCC1` [Example 27, 1,2,8,9,10,11-hexahydro-7H-azepino[4,5-b][1,4]thiazino[2,3,4-hi]indole hydrochloride] has a Ki of 5.1 nM. With `c1cc2c3c(c1)c1c(n3CCO2)CCNCC1` [Example 21, 1,2,8,9,10,11-hexahydro-7H-azepino[4,5-b][1,4]oxazino[2,3,4-hi]indole hydrochloride] the Ki was 16 nM. `CC1Cc2cccc3c4c(n(c23)C1)CCNCC4` (single isomer, unassigned; (+)) [Example 10, (+)-5-methyl-5,6,9,10,11,12-hexahydro-4H,8H-azepino[4′,5′:4,5]pyrrolo[3,2,1-ij]quinoline hydrochloride] gave a Ki of 70 nM. In the case of `Cc1cc2c3c(c1)c1c(n3CCC2)CCNCC1` [Example 2, 2-methyl-5,6,9,10,11,12-hexahydro-4H,8H-azepino[4′,5′:4,5]pyrrolo[3,2,1-ij]quinoline hydrochloride], the Ki is reported as 80 nM. `Clc1ccc2c3c1c1c(n3CCO2)CCNCC1` [Example 22, 6-chloro-1,2,8,9,10,11-hexahydro-7H-azepino[4,5-b][1,4]oxazino[2,3,4-hi]indole hydrochloride] was tested, and the Ki was 2.3 nM. In the case of `CC1c2cccc3c4c(n(c23)C1C)CCNCC4` (stereo not drawn) [Example 18, 4,5-dimethyl-4,5,8,9,10,11-hexahydro-7H-azepino[4,5-b]pyrrolo[3,2,1-hi]indole hydrochloride], the Ki is reported as 52 nM. `CC1CCc2cccc3c4c(n1c23)CCNCC4` (stereo not drawn) [Example 5, 6-methyl-5,6,9,10,11,12-hexahydro-4H,8H-azepino[4′,5′:4,5]pyrrolo[3,2,1-ij]quinoline hydrochloride] was tested, and the Ki was 33 nM. `Fc1ccc2c3c1c1c(n3CCO2)CCNCC1` [Example 25, 6-fluoro-1,2,8,9,10,11-hexahydro-7H-azepino[4,5-b][1,4]oxazino[2,3,4-hi]indole hydrochloride] showed a Ki of 8 nM. In the case of `CC1CCc2cccc3c4c(n1c23)CCNCC4` (single isomer, unassigned; (-)) [Example 9, (−)-6-methyl-5,6,9,10,11,12-hexahydro-4H,8H-azepino[4′,5′:4,5]pyrrolo[3,2,1-ij]quinoline hydrochloride], the Ki is reported as 26 nM. For `c1cc2c3c(c1)c1c(n3C3CCCCC23)CCNCC1` (stereo not drawn) [Example 19, 2,3,4,5,8b,9,10,11,12,12a-decahydro-1H-azepino[4′,5′:4,5]pyrrolo[3,2,1-jk]carbazole hydrochloride], the Ki was 144 nM.
